The test system of assay [1] is ovariectomized rats. Nature of the assay: Bone index test (in vivo micro-CT scan of caput femoris). The note with it: for BMD level compared with OVX group: week 12. The arrangement: species or system Wistar rats. The method, then: (§1) For ovariectomy rats, bilateral ovariectomy surgery was conducted at 12-week-old under anesthesia with Zoletil 50 (Tiletamine 20-40 mg/kg+Zolazepam 5-10 mg/kg) and Rompun, following the FDA Guidelines and Animal Models for Osteoporosis. For sham surgery rats, set as control group, the surgery performed surgical incision without removing the ovaries was also conducted at 12-week-old under anesthesia with Zoletil 50 (Tiletamine 20-40 mg/kg+Zolazepam 5-10 mg/kg) and Rompun. After ovariectomy surgery, 24 rats of ovariectomy group were randomly divided into 4 groups, namely, 6 rats in each group. After 2 weeks of surgery, the rats were oral administered once a day with different samples based on their groups. The rats were weighed once a week as the basis for the dose of administration for 12 weeks and the weight data were recorded. Finally, when sacrificed, the ovarian of the rats were checked to determine whether the ovariectomy surgery was successful or not, wherein the data of failed ovariectomy rat(s) would be eliminated.
(§2) Total 30 rats were grouped into following 5 groups (i.e., “SHAM”, “OVX”, “G7P”, “G7P2X”, “E2”). • a. SHAM group: sham surgery rats, set as control group, fed with sterile water by oral gavage; • b. OVX group: ovariectomized rats, set as negative control, fed with sterile water by oral gavage; • c. G7P group: ovariectomized rats, administered with 5.33 mg/kg B.W. G7P solution once per day by oral gavage, wherein the dosage was equal to 40 mg/day of the amount of soy isoflavones for adult; • d. G7P2X group: ovariectomized rats, administered with 10.66 mg/kg B.W. G7P once per day by oral gavage, wherein the dosage was equal to 80 mg/day of the amount of soy isoflavones for adult; • e. E2 group: ovariectomized rats, set as positive control, administered with 200 μg/kg B.W. […] once per day by tube feeding.
At week 0, 3, 6, 9 and 12 of the experimental period, in vivo micro-CT scan were conducted on the caput femoris of right leg of the rats by animal CT scanner system Sky Scan 1176 to obtain the 3D tomography image. The obtained 3D tomography images were further analyzed by software so as to obtain bone index data. The data include bone mineral density (BMD) and bone volume-to-total volume ratio (bone volume/total volume, BV/TV, %).

A short description of assay [2]: Weight changes in ovariectomized rat model. Conditions: ovariectomized rats; for effect on weight gain caused by estrogen deficiency: 12 weeks. It counts as in vivo, Wistar rats. As to the method: 12-week-old female Wistar rats were used. All of experimental rats were purchased from BioLASCO Taiwan Co., Ltd. The rats were housed in the Experimental Animal Center of Taipei Medical University. The animal room was maintained under temperature of 21-24° C., relative humidity of 30-70%, and 12 hours of automatic light for alternating dark and bright. During the experimental periods, the animals were given adequate drinking water and fed with standard feed. The feeding and surgery were in accordance with the regulations of the Institutional Animal Care and Use Committee (IACUC) of Taipei Medical University.
as §1, §2

For assay [3], the system named is ovariectomized rats. Nature of the assay: Bone mechanics analysis (three-point bending test of femur). The assay is classed as in vivo, Wistar rats. The note with it: week 12. The method, then:
as §1, §2
The bio-mechanical strength of femur was measured using bio-mechanical testing instrument (RT1-TST, Royalty Tec.Ins. Ltd) after removing the soft tissue of left leg. First, the length of the femur was measured by the electronic vernier and the mid-position of the femur was set so as to be the scale standard which must be aligned when compressing the vertical physical strength of the femur by the bone stress meter. The femur was kept moist with physiological saline and fixed on a test bench for a three-point bending test. The motor revolution speed of the bone stress meter was set at 0.05 mm/sec. After the femur was compressed to fracture, the parameters of the bone mechanics analysis obtained by the test system were as follows:
a. maximal load: the force converted from the maximum weight of the record, the unit is Newton;
b. maximal energy: the area integratal under the record curve, the unit is mJ;
d. Young's modulus or elastic modulus (E).

Assay [4] deals with ovariectomized rats. As to the kind of experiment: Histopathological observation (H&E staining, caput femoris). It counts as in vivo, Wistar rats. The method, then:
as §1
Total 30 rats were grouped into following 5 groups (i.e., “SHAM”, “OVX”, “G7P”, “G7P2X”, “E2”). • a. SHAM group: sham surgery rats, set as control group, fed with sterile water by oral gavage; • b. OVX group: ovariectomized rats, set as negative control, fed with sterile water by oral gavage; • c. […]

The test system of the next assay is ovarietomized rats. Conditions: 3.2 mg/kg B.W. daily oral supplement, 5 months; cited from earlier work.
The mark [5] stands for this setting: estradiol 200 μg/kg B.W. once per day oral (E2 group).
Where [6] appears, read: estradiol 200 μg/kg B.W. once per day by tube feeding (E2 group).
Where [7] appears, read: G7P 5.33 mg/kg B.W. once per day oral (G7P group).
Setting [8] is: G7P 10.66 mg/kg B.W. once per day oral (G7P2X group).
Setting [9] is: G7P 5.33 mg/kg B.W. once per day oral gavage (G7P group).
The mark [10] stands for this setting: G7P 10.66 mg/kg B.W. once per day oral gavage (G7P2X group).

SMILES strings stand for the structures.

Turning to `C[C@]12CC[C@@H]3c4ccc(O)cc4CC[C@H]3[C@@H]1CC[C@@H]2O` [E2, 1743 estradiol, reference compound], in the assay with ovariectomized rats [1] (setting [5]), the “BV/TV compared with OVX group” value was “higher than that of the OVX group with statistical significance”, the “trabecular structure in μCT 3D imaging” value is recorded as “a wide but loose trabecular distribution” and the “BMD level compared with OVX group” value is listed as “significantly higher than that of the OVX group”. Moreover, in assay [2] (setting [5]), the “effect on weight gain caused by estrogen deficiency” value (“effect on weight gain caused” for short) was “could reduce the weight gain”. Moreover, in the assay with ovariectomized rats [3] (setting [6]), the “Max Energy” value was determined as 76.1 ± 20.3 mJ, the Stiffness came out at 307.6 ± 55.1 N/mm and the applied load was found to be 176.8 ± 12.1 N.

As for `O=c1c(-c2ccc(O)cc2)coc2cc(OP(=O)(O)O)cc(O)c12` [G7P, genistein 7-O-phophate], in the assay with ovariectomized rats [1] (setting [7]), the “BV/TV compared with OVX group” value was “higher than that of the OVX group with statistical significance”, the “trabecular structure in μCT 3D imaging” value is given as “much integrated than that of the OVX group” and the “BMD level compared with OVX group” value is reported as “significantly higher than that of the OVX group”. Further, in the assay with ovariectomized rats [1] (setting [8]), the “BV/TV compared with OVX group” value is recorded as “higher than that of the OVX group with statistical significance”, the “trabecular structure in μCT 3D imaging” value is on record as “much integrated than that of the OVX group” and the “BMD level compared with OVX group” value was “significantly higher than that of the OVX group”. The “effect on weight gain caused” value in assay [2] (setting [7]) is recorded as “did not reverse the weight gain”. In assay [2] (G7P 5.33 mg/kg B.W. once per day oral (G7P group), week 12 after surgery), this compound displayed a body weight of about 400 g. In addition, the “effect on weight gain caused” value in assay [2] (setting [8]) is “did not reverse the weight gain”. In the assay on ovariectomized rats [3] (setting [9]), the Elastic modulus is on record as 21.8 ± 2.6 MPa, the “Max Energy” value came to 74.4 ± 6.8 mJ, the Stiffness is reported as 326.2 ± 43.2 N/mm and the applied load turned out to be 186.5 ± 5.9 N. In the assay on ovariectomized rats [3] (setting [10]), the Elastic modulus stood at 22.8 ± 6.1 MPa, the “Max Energy” value turned out to be 82.7 ± 22.8 mJ, the Stiffness was determined as 319.1 ± 6.1 N/mm and the applied load is on record as 197.5 ± 20.6 N. For the same compound, the “bone mineral retention and trabecular bone density in H&E slide” value in the assay on ovariectomized rats [4] (setting [7]) is on record as “good”. For the same compound, the “bone mineral retention and trabecular bone density in H&E slide” value with ovariectomized rats [4] (setting [8]) was “good”.

With `O=c1c(-c2ccc(O)cc2)coc2cc(O)cc(O)c12` [genistein], the “effect on bone mass, density or architecture” value with ovarietomized rats is “had no effect on bone mass, density or architecture”.

The values above are taken from US10881634B2, “Method for treatment or prevention of a disease associated with a decrease in bone mass and method of improving bone architecture and bio mechanical strength of bone” (HUGHES BIOTECHNOLOGY CO., LTD, priority 2017, dated 2021).
